Measured values from PubChem BioAssay (NCI).
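Results reflect a 48-hour exposure of cells in 96-well plates to compound at five concentrations. The concentration for full growth arrest is given as TGI.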

Experiments:
Assay in all cases: NCI tumour cell line growth inhibition, 48 h
NCI/ADR-RES ovarian = system: NCI/ADR-RES ovarian
U251 CNS = system: U251 CNS
SK-OV-3 ovarian = system: SK-OV-3 ovarian
BT-549 breast = system: BT-549 breast
MOLT-4 leukemia = system: MOLT-4 leukemia
HT29 colon = system: HT29 colon
CCRF-CEM leukemia = system: CCRF-CEM leukemia
MALME-3M melanoma = system: MALME-3M melanoma
LOX IMVI melanoma = system: LOX IMVI melanoma
SNB-75 CNS = system: SNB-75 CNS
HL-60(TB) leukemia = system: HL-60(TB) leukemia
SF-268 CNS = system: SF-268 CNS
NCI-H226 lung = system: NCI-H226 lung
HS 578T breast = system: HS 578T breast
T-47D breast = system: T-47D breast
M14 melanoma = system: M14 melanoma
OVCAR-4 ovarian = system: OVCAR-4 ovarian
NCI-H23 lung = system: NCI-H23 lung
SF-539 CNS = system: SF-539 CNS
CAKI-1 renal = system: CAKI-1 renal
786-0 renal = system: 786-0 renal
UACC-257 melanoma = system: UACC-257 melanoma
KM12 colon = system: KM12 colon
MDA-MB-231 breast = system: MDA-MB-231 breast
HCT-15 colon = system: HCT-15 colon
EKVX NSCLC = system: EKVX NSCLC
UACC-62 melanoma = system: UACC-62 melanoma
OVCAR-8 ovarian = system: OVCAR-8 ovarian
SNB-19 CNS = system: SNB-19 CNS
SK-MEL-2 melanoma = system: SK-MEL-2 melanoma
UO-31 renal = system: UO-31 renal
SK-MEL-28 melanoma = system: SK-MEL-28 melanoma
PC-3 prostate = system: PC-3 prostate
ACHN renal = system: ACHN renal
SW-620 colon = system: SW-620 colon
DU-145 prostate = system: DU-145 prostate
COLO 205 colon = system: COLO 205 colon
A498 renal = system: A498 renal
NCI-H522 lung = system: NCI-H522 lung
TK-10 renal = system: TK-10 renal
SF-295 CNS = system: SF-295 CNS
RXF 393 renal = system: RXF 393 renal
SN12C renal = system: SN12C renal
SK-MEL-5 melanoma = system: SK-MEL-5 melanoma
MDA-MB-435 = system: MDA-MB-435
IGROV1 ovarian = system: IGROV1 ovarian
HCT-116 colon = system: HCT-116 colon
OVCAR-5 ovarian = system: OVCAR-5 ovarian
HOP-62 NSCLC = system: HOP-62 NSCLC
MDA-N = system: MDA-N
A549 NSCLC = system: A549 NSCLC
RPMI-8226 leukemia = system: RPMI-8226 leukemia
HOP-92 NSCLC = system: HOP-92 NSCLC
OVCAR-3 ovarian = system: OVCAR-3 ovarian
K-562 leukemia = system: K-562 leukemia
NCI-H460 lung = system: NCI-H460 lung
HCC-2998 colon = system: HCC-2998 colon

COC(=O)CN1C(=O)C2(C(=O)OC)OC1(c1ccc([N+](=O)[O-])cc1)C1C(=O)N(c3ccccc3)C(=O)C12 (centres undefined)
TGI (NCI/ADR-RES ovarian): > 100 µM | TGI (U251 CNS): > 100 µM | TGI (SK-OV-3 ovarian): > 100 µM | TGI (BT-549 breast): > 100 µM | TGI (MOLT-4 leukemia): > 100 µM | TGI (HT29 colon): > 100 µM | TGI (CCRF-CEM leukemia): > 100 µM | TGI (MALME-3M melanoma): > 100 µM | TGI (LOX IMVI melanoma): > 100 µM | TGI (SNB-75 CNS): > 100 µM | TGI (HL-60(TB) leukemia): > 100 µM | TGI (SF-268 CNS): > 100 µM | TGI (NCI-H226 lung): > 100 µM | TGI (HS 578T breast): > 100 µM | TGI (T-47D breast): > 100 µM | TGI (M14 melanoma): > 100 µM | TGI (OVCAR-4 ovarian): > 100 µM | TGI (NCI-H23 lung): > 100 µM | TGI (SF-539 CNS): > 100 µM | TGI (CAKI-1 renal): > 100 µM | TGI (786-0 renal): > 100 µM | TGI (UACC-257 melanoma): > 100 µM | TGI (KM12 colon): > 100 µM | TGI (MDA-MB-231 breast): > 100 µM | TGI (HCT-15 colon): > 100 µM | TGI (EKVX NSCLC): > 100 µM | TGI (UACC-62 melanoma): > 100 µM | TGI (OVCAR-8 ovarian): > 100 µM | TGI (SNB-19 CNS): > 100 µM | TGI (SK-MEL-2 melanoma): > 100 µM | TGI (UO-31 renal): > 100 µM | TGI (SK-MEL-28 melanoma): > 100 µM | TGI (PC-3 prostate): > 100 µM | TGI (ACHN renal): > 100 µM | TGI (SW-620 colon): > 100 µM | TGI (DU-145 prostate): > 100 µM | TGI (COLO 205 colon): > 100 µM | TGI (A498 renal): > 100 µM | TGI (NCI-H522 lung): > 100 µM | TGI (TK-10 renal): > 100 µM | TGI (SF-295 CNS): > 100 µM | TGI (RXF 393 renal): > 100 µM | TGI (SN12C renal): > 100 µM | TGI (SK-MEL-5 melanoma): > 100 µM | TGI (MDA-MB-435): > 100 µM | TGI (IGROV1 ovarian): > 100 µM | TGI (HCT-116 colon): > 100 µM | TGI (OVCAR-5 ovarian): > 100 µM | TGI (HOP-62 NSCLC): > 100 µM | TGI (MDA-N): > 100 µM | TGI (A549 NSCLC): > 100 µM

O=[N+]([O-])c1cc(N=Nc2c(O)ccc3cc(S(=O)(=O)O)ccc23)c(O)c([N+](=O)[O-])c1
TGI (NCI/ADR-RES ovarian): > 100 µM | TGI (RPMI-8226 leukemia): > 100 µM | TGI (HOP-92 NSCLC): > 100 µM | TGI (U251 CNS): > 100 µM | TGI (SK-OV-3 ovarian): > 100 µM | TGI (BT-549 breast): > 100 µM | TGI (MOLT-4 leukemia): > 100 µM | TGI (OVCAR-3 ovarian): > 100 µM | TGI (HT29 colon): > 100 µM | TGI (CCRF-CEM leukemia): > 100 µM | TGI (MALME-3M melanoma): > 100 µM | TGI (LOX IMVI melanoma): > 100 µM | TGI (SNB-75 CNS): > 100 µM | TGI (HL-60(TB) leukemia): > 100 µM | TGI (SF-268 CNS): > 100 µM | TGI (NCI-H226 lung): > 100 µM | TGI (HS 578T breast): > 100 µM | TGI (T-47D breast): > 100 µM | TGI (M14 melanoma): > 100 µM | TGI (OVCAR-4 ovarian): > 100 µM | TGI (NCI-H23 lung): > 100 µM | TGI (CAKI-1 renal): > 100 µM | TGI (786-0 renal): > 100 µM | TGI (UACC-257 melanoma): > 100 µM | TGI (KM12 colon): > 100 µM | TGI (MDA-MB-231 breast): > 100 µM | TGI (HCT-15 colon): > 100 µM | TGI (EKVX NSCLC): > 100 µM | TGI (UACC-62 melanoma): > 100 µM | TGI (OVCAR-8 ovarian): > 100 µM | TGI (SNB-19 CNS): > 100 µM | TGI (SK-MEL-2 melanoma): > 100 µM | TGI (UO-31 renal): > 100 µM | TGI (SK-MEL-28 melanoma): > 100 µM | TGI (PC-3 prostate): > 100 µM | TGI (ACHN renal): > 100 µM | TGI (SW-620 colon): > 100 µM | TGI (DU-145 prostate): > 100 µM | TGI (COLO 205 colon): > 100 µM | TGI (NCI-H522 lung): > 100 µM | TGI (TK-10 renal): > 100 µM | TGI (K-562 leukemia): > 100 µM | TGI (SF-295 CNS): > 100 µM | TGI (RXF 393 renal): > 100 µM | TGI (SN12C renal): > 100 µM | TGI (SK-MEL-5 melanoma): > 100 µM | TGI (MDA-MB-435): > 100 µM | TGI (IGROV1 ovarian): > 100 µM | TGI (HCT-116 colon): > 100 µM | TGI (OVCAR-5 ovarian): > 100 µM | TGI (HOP-62 NSCLC): > 100 µM | TGI (MDA-N): > 100 µM | TGI (A549 NSCLC): > 100 µM

CC(O)(C#N)CC(O)(C(F)(F)Cl)C(F)(F)Cl (centres undefined)
TGI (NCI/ADR-RES ovarian): > 10 µM | TGI (HOP-92 NSCLC): > 10 µM | TGI (U251 CNS): > 10 µM | TGI (OVCAR-3 ovarian): > 10 µM | TGI (HT29 colon): > 10 µM | TGI (SNB-75 CNS): > 10 µM | TGI (SF-268 CNS): > 10 µM | TGI (NCI-H226 lung): > 10 µM | TGI (M14 melanoma): > 10 µM | TGI (OVCAR-4 ovarian): > 10 µM | TGI (NCI-H23 lung): > 10 µM | TGI (SF-539 CNS): > 10 µM | TGI (CAKI-1 renal): > 10 µM | TGI (KM12 colon): > 10 µM | TGI (MDA-MB-231 breast): > 10 µM | TGI (HCT-15 colon): > 10 µM | TGI (EKVX NSCLC): > 10 µM | TGI (OVCAR-8 ovarian): > 10 µM | TGI (SNB-19 CNS): > 10 µM | TGI (UO-31 renal): > 10 µM | TGI (SK-MEL-28 melanoma): > 10 µM | TGI (PC-3 prostate): > 10 µM | TGI (ACHN renal): > 10 µM | TGI (SW-620 colon): > 10 µM | TGI (DU-145 prostate): > 10 µM | TGI (COLO 205 colon): > 10 µM | TGI (A498 renal): > 10 µM | TGI (TK-10 renal): > 10 µM | TGI (SF-295 CNS): > 10 µM | TGI (RXF 393 renal): > 10 µM | TGI (SN12C renal): > 10 µM | TGI (SK-MEL-5 melanoma): > 10 µM | TGI (MDA-MB-435): > 10 µM | TGI (IGROV1 ovarian): > 10 µM | TGI (HCT-116 colon): > 10 µM | TGI (OVCAR-5 ovarian): > 10 µM | TGI (MDA-N): > 10 µM | TGI (A549 NSCLC): > 10 µM

S=C(N/N=C/c1ccccn1)N1CC2CCC(CC2)C1
TGI (HOP-92 NSCLC): 13.9 µM | TGI (U251 CNS): 4.6 µM | TGI (SK-OV-3 ovarian): 5.7 µM | TGI (BT-549 breast): 12.5 µM | TGI (OVCAR-3 ovarian): 13.9 µM | TGI (HT29 colon): 17.3 µM | TGI (MALME-3M melanoma): 11.4 µM | TGI (LOX IMVI melanoma): 12.4 µM | TGI (SNB-75 CNS): 0.868 µM | TGI (HL-60(TB) leukemia): 0.143 µM | TGI (SF-268 CNS): 14.8 µM | TGI (NCI-H226 lung): 1.53 µM | TGI (HS 578T breast): 30.6 µM | TGI (M14 melanoma): 0.209 µM | TGI (OVCAR-4 ovarian): 20.4 µM | TGI (NCI-H23 lung): 7.7 µM | TGI (SF-539 CNS): 0.287 µM | TGI (CAKI-1 renal): 1.82 µM | TGI (NCI-H460 lung): 207 nM | TGI (786-0 renal): 0.242 µM | TGI (UACC-257 melanoma): < 0.039 µM | TGI (KM12 colon): 7.76 µM | TGI (HCT-15 colon): 14.9 µM | TGI (EKVX NSCLC): 7.05 µM | TGI (UACC-62 melanoma): 0.531 µM | TGI (OVCAR-8 ovarian): 0.252 µM | TGI (SNB-19 CNS): 14.3 µM | TGI (SK-MEL-2 melanoma): 15.5 µM | TGI (UO-31 renal): 2.24 µM | TGI (SK-MEL-28 melanoma): 17.4 µM | TGI (PC-3 prostate): 13 µM | TGI (ACHN renal): 2.15 µM | TGI (SW-620 colon): 14.5 µM | TGI (DU-145 prostate): 12 µM | TGI (A498 renal): 2.93 µM | TGI (NCI-H522 lung): 3.64 µM | TGI (TK-10 renal): 1.82 µM | TGI (SF-295 CNS): 11.1 µM | TGI (RXF 393 renal): 3.19 µM | TGI (SN12C renal): 0.645 µM | TGI (HCC-2998 colon): 18.6 µM | TGI (MDA-MB-435): 15.1 µM | TGI (HCT-116 colon): 3.88 µM | TGI (OVCAR-5 ovarian): 18 µM | TGI (HOP-62 NSCLC): 0.461 µM | TGI (MDA-N): 13.1 µM | TGI (A549 NSCLC): 14.2 µM
